Results published in patent publication US8486921B2, “Synthesis of tetracyclines and analogues thereof” (President and Fellows of Harvard College, priority 2006, dated 2013).

Tested on: Gram-positive strains
Test: Whole-cell antibacterial MIC assay (NCCLS serial dilution), Gram-positive strains
Type: cell-based
Details: each of the Gram-positive strains examined, including strains with resistance to tetracycline, methicillin, and vancomycin
Description: The efficiencies of the synthetic sequences have allowed for the preparation of sufficient quantities of each tetracycline analog for antibacterial testing using standard serial-dilution techniques (5-20 mg amounts). Minimum inhibitory concentrations (MICs) are reported for each analog in whole-cell antimicrobial assays using five Gram-positive and five Gram-negative organisms (FIG. 18).
Whole-cell antibacterial activity was determined according to methods recommended by the NCCLS-(National Committee for Clinical Laboratory Standards. 2002. Methods for dilution antimicrobial susceptibility tests for bacteria that grow aerobically: approved standard-fifth edition. NCCLS document M100-S12. National Committee for Clinical Laboratory Standards. Wayne, Pa.; incorporated herein by reference). Test compounds were dissolved in dimethyl sulfoxide (DMSO) and the resulting solutions were diluted in water (1:10) to produce stock solutions with a final concentration of 256 μg tetracycline analog per mL. In a 96-well microtiter plate, 50-μL aliquots of stock solutions were diluted serially into cation-adjusted Mueller-Hinton broth (MHB; Becton-Dickinson, Cockeysville, Md.). Test organisms (50 μL aliquots of solutions […]) were then added to the appropriate wells of the microtiter plate. […] The MIC was the lowest concentration of compound determined to inhibit visible growth. […]

Compound: CN(C)[C@@H]1C(O)=C(C(N)=O)C(=O)[C@@]2(O)C(O)=C3C(=O)c4c(cc5ccccc5c4O)C[C@H]3C[C@@H]12 [compound 6]
- antibacterial activity (MIC) compared with tetracycline: activity equal to or greater than tetracycline
